Reference: ChEMBL document CHEMBL1137498, “Design, synthesis and biological evaluation of novel lipoamino acid-based glycolipids for oral drug delivery” (Bioorg Med Chem, 2007)
In brackets after ≈: the same amount, converted by molar mass.

Assays:
Bacillus subtilis = assay: Antibacterial activity against Bacillus subtilis; assay type: functional
Staphylococcus aureus = assay: Antibacterial activity against Staphylococcus aureus; assay type: functional
Klebsiella aerogenes = assay: Antibacterial activity against Klebsiella aerogenes; assay type: functional
Pseudomonas aeruginosa = assay: Antibacterial activity against Pseudomonas aeruginosa; assay type: functional
Escherichia coli = assay: Antibacterial activity against Escherichia coli; assay type: functional
[1] = Apparent permeability across Caco-2 cells; assay type: ADME, cell-based; settings: human

With `CCN1CCN(C(=O)N[C@@H](C(=O)N[C@@H]2C(=O)N3[C@@H]2SC(C)(C)[C@@H]3C(=O)O)c2ccccc2)C(=O)C1=O` [PIPERACILLIN] the MIC (Bacillus subtilis) was 0.5 µg/mL (≈ 0.966 µM), the MIC (Staphylococcus aureus) was 1 µg/mL (≈ 1.93 µM) and the MIC (Klebsiella aerogenes) was 8 µg/mL (≈ 15.5 µM). For the same compound, the MIC (Pseudomonas aeruginosa) was 4 µg/mL (≈ 7.73 µM), the MIC (Escherichia coli) was 4 µg/mL (≈ 7.73 µM) and the Papp [1] was 0.0325 ×10⁻⁶ cm/s.
